Assay results: patent US7456165B2, “HCV NS5B inhibitors” (Bristol-Myers Squibb Company, priority 2006, dated 2008)
pEC50, pIC50: −log10 of the molar value. Like-named read-outs stand apart in the source and are kept apart here.

Legend:
HCV NS5B = molecular target: T1, HCV NS5B (Hepatitis C virus genotype 1b, UniProt Q9WMX2); assay: HCV NS5B RdRp enzyme assay (preincubation protocol); type: biochemical; conditions: HCV NS5B RdRp genotype 1b
T1 construct: The protein was expressed with an 18 amino acid C-terminal truncation to enhance the solubility; made in house; host or cells: E. coli BL21(DE3)
Procedure, shortened: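 Preincubation format uses C-terminally truncated (Δ18) NS5B 1b from E. coli at 14 nM, added to compound before polyA template (0.2 nM), 3H-UTP (0.29 μM) and oligo-dT12 primer precaptured on SPA beads (20 nM). Buffer was 20 mM Hepes pH 7.5, 2% DMSO, run 4 h at 30° C. IC50 came from seven concentrations.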

HCV replicon cells = assay: HCV replicon FRET assay; type: cell-based
Procedure, shortened: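 Huh-7-derived HCV replicon cells (with or without Renilla luciferase reporter) incubated with titrated compound at 37° C. Lysed cells then read by NS3 cleavage of EDANS/DABCYL FRET peptide (20 μM, 340/490 nm, kinetic) or by Dual-Glo luciferase. EC50 is concentration giving 50% signal reduction after protease-inhibitor background subtraction; Alamar blue gives cytotoxicity.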

T1 sequence (Q9WMX2 2420-2992): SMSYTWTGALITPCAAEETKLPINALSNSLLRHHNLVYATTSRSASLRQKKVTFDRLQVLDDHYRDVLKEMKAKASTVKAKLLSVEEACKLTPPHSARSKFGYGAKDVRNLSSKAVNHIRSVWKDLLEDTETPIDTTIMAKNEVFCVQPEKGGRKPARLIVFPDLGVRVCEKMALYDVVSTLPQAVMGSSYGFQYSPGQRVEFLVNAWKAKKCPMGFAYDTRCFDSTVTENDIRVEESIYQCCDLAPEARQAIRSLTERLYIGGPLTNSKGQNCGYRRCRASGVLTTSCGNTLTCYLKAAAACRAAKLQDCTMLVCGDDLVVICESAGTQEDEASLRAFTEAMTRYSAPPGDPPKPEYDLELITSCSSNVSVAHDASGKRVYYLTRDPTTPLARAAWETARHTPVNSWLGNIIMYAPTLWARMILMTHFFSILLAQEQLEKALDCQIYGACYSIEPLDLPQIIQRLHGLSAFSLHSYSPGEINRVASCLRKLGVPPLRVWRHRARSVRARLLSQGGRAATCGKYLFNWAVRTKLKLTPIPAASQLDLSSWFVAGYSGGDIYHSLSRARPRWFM

COc1ccc2c(c1)CC(c1ncc(CCC(=O)N3CCOCC3)o1)Cn1c-2c(C2CCCCC2)c2ccc(C(=O)NS(=O)(=O)N(C)C)cc21 (single isomer, unassigned) [Example 53, 13-Cyclohexyl-N-((dimethylamino)sulfonyl)-3-methoxy-6-(5-(3-(4-morpholinyl)-3-oxopropyl)-1,3-oxazol-2-yl)-6,7-dihydro-5H-indolo[2,1-a][2]benzazepine-10-carboxamide]
pIC50 (HCV NS5B): 6.30 to 9.00
pEC50 (HCV replicon cells; Hepatitis C virus): 6.30 to 9.00

CCn1nnc(C2=Cc3ccccc3-c3c(C4CCCCC4)c4ccc(C(=O)O)cc4n3C2)n1 [Example 3, 13-cyclohexyl-6-(2-ethyl-2H-tetrazol-5-yl)-7H-indolo[2,1-a][2]benzazepine-10-carboxylic acid]
pIC50 (HCV NS5B): 6.30 to 9.00
pEC50 (HCV replicon cells; Hepatitis C virus): < 6.30

COc1ccc2c(c1)CC(c1ncc(CCC(=O)N3CCOCC3)o1)Cn1c-2c(C2CCCCC2)c2ccc(C(=O)O)cc21 (single isomer, unassigned) [Example 52, 13-Cyclohexyl-3-methoxy-6-(5-(3-(4-morpholinyl)-3-oxopropyl)-1,3-oxazol-2-yl)-6,7-dihydro-5H-indolo[2,1-a][2]benzazepine-10-carboxylic acid]
pIC50 (HCV NS5B): 6.30 to 9.00
pEC50 (HCV replicon cells): 6.30 to 9.00

O=C(O)c1ccc2c(C3CCCCC3)c3n(c2c1)CC(c1nnnn1CC1CCCO1)=Cc1ccccc1-3 (stereo not shown) [Example 10, 13-cyclohexyl-6-[1-[(tetrahydro-2-furanyl)methyl]-1H-tetrazol-5-yl]-7H-indolo[2,1-a][2]benzazepine-10-carboxylic acid]
pIC50 (HCV NS5B): 6.30 to 9.00
pEC50 (HCV replicon cells; Hepatitis C virus): < 6.30

COC(=O)c1ccc2c(C3CCCCC3)c3n(c2c1)CC(c1nnn[nH]1)=Cc1ccccc1-3 [Example 1, 13-cyclohexyl-6-(1H-tetrazol-5-yl)-7H-indolo[2,1-a][2]benzazepine-10-carboxylic acid, methyl ester]
pIC50 (HCV NS5B): < 6.30
pEC50 (HCV replicon cells; Hepatitis C virus): < 6.30

COC(=O)c1ccc2c(C3CCCCC3)c3n(c2c1)CC(c1nc(C)no1)=Cc1ccccc1-3 [Example 23, 13-cyclohexyl-6-(3-methyl-1,2,4-oxadiazol-5-yl)-7H-indolo[2,1-a][2]benzazepine-10-carboxylic acid, methyl ester]
pIC50 (HCV NS5B): < 6.30
pEC50 (HCV replicon cells; Hepatitis C virus): < 6.30

COC(=O)c1ccc2c(C3CCCCC3)c3n(c2c1)CC(c1n[nH]c(CC2CCOCC2)n1)=Cc1ccccc1-3 [Example 40, 13-cyclohexyl-6-[5-[(tetrahydro-2H-pyran-4-yl)methyl]-1H-1,2,4-triazol-3-yl]-7H-indolo[2,1-a][2]benzazepine-10-carboxylic acid, methyl ester]
pIC50 (HCV NS5B): < 6.30
pEC50 (HCV replicon cells; Hepatitis C virus): < 6.30

COc1ccc2c(c1)C=C(c1nnn(CC3CCOCC3)n1)Cn1c-2c(C2CCCCC2)c2ccc(C(=O)O)cc21 [Example 16, 13-cyclohexyl-3-methoxy-6-[2-[(tetrahydro-2H-pyran-4-yl)methyl]-2H-tetrazol-5-yl]-7H-indolo[2,1-a][2]benzazepine-10-carboxylic acid]
pIC50 (HCV NS5B): 6.30 to 9.00
pEC50 (HCV replicon cells; Hepatitis C virus): < 6.30
